Results: patent publication US20250179057A1, “MEK IMMUNE ONCOLOGY INHIBITORS AND THERAPEUTIC USES THEREOF” (Immuneering Corporation, priority 2022, published 2025)

What was measured:
[1] = Plasma stability, beagle dog plasma (K2EDTA); type: in vitro ADME; settings: beagle dog plasma, 2 μM, anti-coagulant K2-EDTA; for % Remaining at T120: 120 min
Method: (§1) Individual stock solutions of propantheline and lovastatin were prepared at 10 mM in DMSO and were further diluted to 2 mM with DMSO.
(§2) Frozen matrices (Balb/c mouse, Wistar Han rat, Beagle dog, and human plasma containing K2EDTA as anti-coagulant) were thawed and centrifuged at 3100 rpm for 10 minutes at 4° C. to remove particulates. The lipid layer was then removed, and the supernatant was transferred to a new tube without disturbing the pellet. After the matrices were incubated at 37° C. for at least 10 minutes, the pH of each matrix was adjusted to pH 7.4, using 10% phosphoric acid or 1N sodium hydroxide as necessary. Test and control article stock solutions were spiked (2 μL) into matrix (1.998 mL) and mixed to final assay concentration of […]. Duplicate 30-μL aliquots of spiked plasma were transferred to matrix tubes in 96-well plate immediately after spiking for timepoints of 0, 30, 60, 120, 240, and 360 minutes. These tubes were then incubated at 37° C. with shaking and at each timepoint, the corresponding tubes containing samples were quenched with 180 μL of cold acetonitrile containing the internal standards. The quenched samples were vortex-mixed briefly and stored refrigerated. After the final time point (360 minutes), the plates with all quenched samples were vortex-mixed for 10 minutes and then centrifuged at 3100 rpm for 10 minutes at 4° C. to sediment the precipitated protein. The supernatant (50 μL) was transferred to a clean 96-well plate and diluted with 100 μL of water. The plates were stored refrigerated until analysis.
(§3) Data Analysis: Peak area ratios for IS-normalized test article and control article counts were used to calculate the percent remaining relative to the time zero (T0) value. As appropriate, results were plotted and further analyzed to calculate half-life (T1/2) values.
(§4) Mean peak area ratios were used to calculate the % remaining relative to the T0 value:
(§5) In this study, human, cynomolgus monkey, beagle dog, wistar hannover rat, and balb/c plasma stability was determined. Table 28 describes the results of the human plasma stability at 2 μM concentration and anti-coagulant K2-EDTA from 10 to 120 min. Table 29 describes the results of the cynomolgus monkey plasma stability at 2 μM concentration and anti-coagulant K2-EDTA. Table 30 describes the results of the beagle dog plasma stability at 2 μM concentration and anti-coagulant K2-EDTA. Table 31 describes the results of the wistar hannover rat plasma stability at 2 μM concentration and anti-coagulant K2-EDTA. Table 32 describes the results of the balb/c plasma stability at 2 μM concentration and anti-coagulant K2-EDTA.

[2] = Plasma stability, rat plasma (Wistar Han / wistar hannover; Table 5 head SD Rat); type: in vitro ADME; settings: wistar hannover rat plasma, 2 μM, anti-coagulant K2-EDTA; for % Remaining at T120: 120 min
Method: as §1, §2, §3, §4, §5

[3] = Plasma stability, mouse plasma (Balb/c; Table 5 head CD-1 Mouse); type: in vitro ADME; settings: balb/c plasma, 2 μM, anti-coagulant K2-EDTA; for % Remaining at T120: 120 min
Method: as §1, §2, §3, §4, §5

human hepatocytes = experiment: Hepatocyte stability, human; type: in vitro ADME; settings: 2 μM, 0.5 million cells/ml; for % Remaining At T120 / T1/2: 120 min
Method: (§6) In this study, human, cynomolgus monkey, beagle dog, wistar hannover rat, and balb/c mouse hepatocyle stability was determined.

[4] = system: cynomolgus monkey hepatocytes; experiment: Hepatocyte stability, cynomolgus monkey; type: in vitro ADME; settings: 2 μM, 0.5 million cells/ml
Method: as §6

beagle dog hepatocytes = experiment: Hepatocyte stability, beagle dog; type: in vitro ADME; settings: 2 μM, 0.5 million cells/ml
Method: as §6

[5] = system: wistar hannover rat hepatocytes; experiment: Hepatocyte stability, wistar hannover rat; type: in vitro ADME; settings: 2 μM, 0.5 million cells/ml
Method: as §6

balb/c mouse hepatocytes = experiment: Hepatocyte stability, balb/c mouse; type: in vitro ADME; settings: 2 μM, 0.5 million cells/ml
Method: as §6

Caco-2 cells = experiment: Caco-2 bidirectional permeability (absorption & efflux); settings: Example 47
CYP2B6 = target: T1, CYP2B6 (Homo sapiens, UniProt P20813); experiment: CYP450 panel inhibition in human liver microsomes, 2B6 (bupropion); settings: 10 μM, substrate bupropion
T1 sequence (P20813 1-491): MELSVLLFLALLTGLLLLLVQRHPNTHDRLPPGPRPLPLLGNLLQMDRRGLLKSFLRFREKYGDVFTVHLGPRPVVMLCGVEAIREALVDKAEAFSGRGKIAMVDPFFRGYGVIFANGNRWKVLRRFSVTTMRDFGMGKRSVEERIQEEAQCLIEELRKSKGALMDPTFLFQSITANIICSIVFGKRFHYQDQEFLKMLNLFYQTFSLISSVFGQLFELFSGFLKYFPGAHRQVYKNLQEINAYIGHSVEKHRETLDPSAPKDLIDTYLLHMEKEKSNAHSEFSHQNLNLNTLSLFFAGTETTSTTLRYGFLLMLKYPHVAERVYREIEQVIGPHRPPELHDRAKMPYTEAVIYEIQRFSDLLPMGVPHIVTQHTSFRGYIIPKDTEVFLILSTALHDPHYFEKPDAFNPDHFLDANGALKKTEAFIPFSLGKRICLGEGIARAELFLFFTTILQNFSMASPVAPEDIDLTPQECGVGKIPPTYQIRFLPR

CYP2D6 = CYP2D6 (Homo sapiens, UniProt P10635); experiment: CYP450 panel inhibition in human liver microsomes, 2D6 (dextromethorphan); settings: 10 μM, substrate dextromethorphan
CYP3A4 = CYP3A4 (Homo sapiens, UniProt P08684); experiment: CYP450 panel inhibition in human liver microsomes, 3A4 (midazolam / testosterone); settings: 10 μM; for CYP-3A4 (Midazolam) mean percentage CYP inhibition: substrate midazolam; for CYP-3A4 (Testosterone) mean percentage CYP inhibition: substrate testosterone
Sequence of CYP3A4 (P08684 whole entry): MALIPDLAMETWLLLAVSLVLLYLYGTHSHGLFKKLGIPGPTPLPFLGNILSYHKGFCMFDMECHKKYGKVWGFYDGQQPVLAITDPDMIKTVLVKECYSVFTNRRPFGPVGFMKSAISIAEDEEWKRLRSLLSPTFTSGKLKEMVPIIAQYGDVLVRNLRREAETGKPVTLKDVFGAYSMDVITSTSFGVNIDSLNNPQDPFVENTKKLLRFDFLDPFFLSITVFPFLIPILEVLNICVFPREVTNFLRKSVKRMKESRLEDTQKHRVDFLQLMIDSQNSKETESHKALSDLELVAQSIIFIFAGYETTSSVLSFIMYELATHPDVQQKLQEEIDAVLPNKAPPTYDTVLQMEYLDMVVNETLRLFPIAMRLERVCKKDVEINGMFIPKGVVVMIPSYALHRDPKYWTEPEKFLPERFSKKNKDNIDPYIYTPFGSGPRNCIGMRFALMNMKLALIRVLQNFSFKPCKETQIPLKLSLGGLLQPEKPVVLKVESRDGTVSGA

Sequence of CYP2D6 (P10635 whole entry): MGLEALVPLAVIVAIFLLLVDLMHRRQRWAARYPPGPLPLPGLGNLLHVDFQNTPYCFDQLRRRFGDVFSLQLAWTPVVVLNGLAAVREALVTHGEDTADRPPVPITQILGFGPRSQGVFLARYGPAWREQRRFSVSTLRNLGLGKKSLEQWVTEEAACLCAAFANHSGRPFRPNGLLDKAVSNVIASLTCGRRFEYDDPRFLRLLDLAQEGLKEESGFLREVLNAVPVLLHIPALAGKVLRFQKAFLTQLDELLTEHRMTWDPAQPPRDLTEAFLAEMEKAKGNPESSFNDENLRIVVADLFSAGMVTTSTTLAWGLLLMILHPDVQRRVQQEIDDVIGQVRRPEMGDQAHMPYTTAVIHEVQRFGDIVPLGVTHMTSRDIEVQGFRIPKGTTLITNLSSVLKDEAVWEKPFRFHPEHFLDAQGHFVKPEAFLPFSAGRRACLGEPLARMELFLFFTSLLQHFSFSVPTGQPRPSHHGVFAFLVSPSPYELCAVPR

Row | Compound | T1/2 [1] [h] | % Remaining at T120 [1] [%] | T1/2 [2] [h] | % Remaining at T120 [2] [%] | T1/2 [3] [h] | % Remaining at T120 [3] [%] | CLint (L/hr/kg) (human hepatocytes) [L/h/kg] | CLint (mL/min/kg) (human hepatocytes) | % Remaining At T120 (human hepatocytes) [%] | % Remaining At T120 [4] [%] | CLint (L/hr/kg) [4] [L/h/kg] | CLint (mL/min/kg) [4] [mL/min/kg] | T1/2 [4] [h] | % Remaining At T120 (beagle dog hepatocytes) [%] | CLint (L/hr/kg) (beagle dog hepatocytes) [L/h/kg] | CLint (mL/min/kg) (beagle dog hepatocytes) | T1/2 (beagle dog hepatocytes) [h] | % Remaining At T120 [5] [%] | CLint (L/hr/kg) [5] [L/h/kg] | CLint (mL/min/kg) [5] [mL/min/kg] | other results
1 | CNS(=O)(=O)Nc1nccc(Cc2c(CN(C)C)c3ccc(OC(=O)N(C)C)cc3oc2=O)c1F [Compound 124] | 94.15 | 101.5 | >2 | 100.3 | >2 | 105.4 | 0.953 | 15.9 | 70.3 | 49.2 | 2.87 | 47.9 | 1.95 | 34.4 | 5.73 | 95.6 | 1.3 | 32.2 | 3.06 | 51.0 | T1/2 (human hepatocytes): 3.93 h; T1/2 [5]: 1.22 h; % Remaining At T120 (balb/c mouse hepatocytes): 55.1%; CLint (L/hr/kg) (balb/c mouse hepatocytes): 7.04 L/h/kg; CLint (mL/min/kg) (balb/c mouse hepatocytes): 117 mL/min/kg; T1/2 (balb/c mouse hepatocytes): 2.33 h; A − B Permeability Ranking (Caco-2 cells): Higher; Mean Efflux Ratio (Caco-2 cells): 5.12; Mean Papp A − B (10^−6 cm/s) (Caco-2 cells): 3.51 10^−6 cm/s; Mean Papp B − A (10^−6 cm/s) (Caco-2 cells): 18.0 10^−6 cm/s; CYP-2B6 (Bupropion) mean percentage CYP inhibition (CYP2B6): 25.5%; CYP-2D6 (Dextromethorphan) mean percentage CYP inhibition (CYP2D6): 10.8%; CYP-3A4 (Midazolam) mean percentage CYP inhibition (CYP3A4): 63.2%; CYP-3A4 (Testosterone) mean percentage CYP inhibition (CYP3A4): 62.6%
2 | CNS(=O)(=O)Nc1cccc(Cc2c(CN(C)C)c3cc(F)c(OC(=O)N(C)C)cc3oc2=O)c1F [Compound 25] | 9.88 | 90.1 | 55.43 | 95.5 | >2 | 99.9 | 0.00218 | 0.0363 | 99.9 | 80.4 | 0.886 | 14.8 | 6.33 | 62.7 | 2.51 | 41.9 | 2.97 | 60.0 | 1.38 | 23.0 | T1/2 [5]: 2.72 h; % Remaining At T120 (balb/c mouse hepatocytes): 72.0%; CLint (L/hr/kg) (balb/c mouse hepatocytes): 3.88 L/h/kg; CLint (mL/min/kg) (balb/c mouse hepatocytes): 64.7 mL/min/kg; T1/2 (balb/c mouse hepatocytes): 4.22 h; A − B Permeability Ranking (Caco-2 cells): Higher; Mean Efflux Ratio (Caco-2 cells): 3.82; Mean Papp A − B (10^−6 cm/s) (Caco-2 cells): 4.39 10^−6 cm/s; Mean Papp B − A (10^−6 cm/s) (Caco-2 cells): 16.7 10^−6 cm/s; CYP-2B6 (Bupropion) mean percentage CYP inhibition (CYP2B6): 16.0%; CYP-2D6 (Dextromethorphan) mean percentage CYP inhibition (CYP2D6): 5.7%; CYP-3A4 (Midazolam) mean percentage CYP inhibition (CYP3A4): 48.5%; CYP-3A4 (Testosterone) mean percentage CYP inhibition (CYP3A4): 47.2%
3 | CNS(=O)(=O)Nc1cccc(Cc2c(CN3CCNCC3)c3cc(F)c(OC(=O)N(C)C)cc3oc2=O)c1F [Compound 134] | 10.4 | 89.9 | 21.15 | 95.2 | 46.85 | 100.2 | 0.148 | 2.46 | 94.7 | 78.5 | 0.980 | 16.3 | 5.73 | 74.7 | 1.57 | 26.1 | 4.75 | 59.8 | 1.39 | 23.1 | T1/2 (human hepatocytes): 25.35 h; T1/2 [5]: 2.7 h; % Remaining At T120 (balb/c mouse hepatocytes): 70.2%; CLint (L/hr/kg) (balb/c mouse hepatocytes): 4.18 L/h/kg; CLint (mL/min/kg) (balb/c mouse hepatocytes): 69.7 mL/min/kg; T1/2 (balb/c mouse hepatocytes): 3.92 h; A − B Permeability Ranking (Caco-2 cells): Higher; Mean Efflux Ratio (Caco-2 cells): 2.01; Mean Papp A − B (10^−6 cm/s) (Caco-2 cells): 3.99 10^−6 cm/s; Mean Papp B − A (10^−6 cm/s) (Caco-2 cells): 8.08 10^−6 cm/s; CYP-2B6 (Bupropion) mean percentage CYP inhibition (CYP2B6): 10.3%; CYP-2D6 (Dextromethorphan) mean percentage CYP inhibition (CYP2D6): 0.5%; CYP-3A4 (Midazolam) mean percentage CYP inhibition (CYP3A4): 44.5%; CYP-3A4 (Testosterone) mean percentage CYP inhibition (CYP3A4): 52.6%
4 | CCS(=O)(=O)Nc1cccc(Cc2c(CN(C)C)c3ccc(OC(=O)N(C)C)cc3oc2=O)c1F [Compound 120] | >2 | 100.9 | 42.68 | 96.8 | 238.68 | 94.2 | 2.02 | 33.6 | 47.4 | 31.6 | 4.67 | 77.8 | 1.2 | 49.5 | 3.78 | 63.0 | 1.97 | 32.0 | 3.07 | 51.2 | T1/2 (human hepatocytes): 1.85 h; T1/2 [5]: 1.22 h; % Remaining At T120 (balb/c mouse hepatocytes): 71.4%; CLint (L/hr/kg) (balb/c mouse hepatocytes): 3.98 L/h/kg; CLint (mL/min/kg) (balb/c mouse hepatocytes): 66.3 mL/min/kg; T1/2 (balb/c mouse hepatocytes): 4.12 h; A − B Permeability Ranking (Caco-2 cells): Higher; Mean Efflux Ratio (Caco-2 cells): 0.567; Mean Papp A − B (10^−6 cm/s) (Caco-2 cells): 21.9 10^−6 cm/s; Mean Papp B − A (10^−6 cm/s) (Caco-2 cells): 12.4 10^−6 cm/s; CYP-2B6 (Bupropion) mean percentage CYP inhibition (CYP2B6): 13.4%; CYP-2D6 (Dextromethorphan) mean percentage CYP inhibition (CYP2D6): −1.9%; CYP-3A4 (Midazolam) mean percentage CYP inhibition (CYP3A4): 11.4%; CYP-3A4 (Testosterone) mean percentage CYP inhibition (CYP3A4): 12.6%
